Here are results for one compound from patent US20230048888A1, “USE OF TRIAZOLOTRIAZINE DERIVATIVE IN TREATMENT OF DISEASES” (ZHEJIANG VIMGREEN PHARMACEUTICALS, LTD., priority 2019, published 2023).

The subject of this assay is MPTP-induced Parkinson's disease. Description: MPTP-induced mouse Parkinson's disease model, open field test. The class given is in vivo, C57BL/6 mice. The note with it: open field 10 minutes. From the text:
By injecting the substantia nigra selective toxin MPTP, the mitochondria were intervened to induce lipid peroxidation for disturbing the membrane structure and affecting cell function, and finally the substantia nigra dopaminergic (DA) neurons were selectively destroyed, leading to the massive death of substantia nigra DA neurons, the massive loss of striatum tyrosine hydroxylase-positive fibers, and the significant decrease in the levels of striatum DA and its metabolites 3,4-dihydroxyphenylacetic acid and homovanillic acid. There are also the hyperplasia of the substantia nigra striatal microglia and astrocytes and the damage of locus coeruleus, hypothalamus and other areas, which are basically the same as those in patients with Parkinson's disease. The ameliorative effect of a test substance on the stiffness symptom of Parkinson's disease induced by MPTP in mice was evaluated.
C57BL/6 male mice of 8 weeks old were selected. The 8-week-old C57 mice were intraperitoneally (i.p.) injected with a vehicle dissolved in saline (normal saline) or MPTP (30 mg/kg body weight) for 5 days to induce the Parkinson's disease.
At 0.5 hours after the last MPTP injection, two doses (10 mpk and 30 mpk) were administered by intragastric administration.
At 1.5 hours after the last MPTP injection, an open field test (total travel distance and number of standings) was performed for 10 minutes.

As to `Nc1nc(NCCc2ccc(NC3COC3)cc2)nc2nc(-c3ccco3)nn12` [Compound 22, 2-(furan-2-yl)-N5-(4-(oxetan-3-ylamino)phenethyl)-[1,2,4]triazolo[1,5-a][1,3,5]triazine-5,7-diamine], where the note is “10 mg/kg p.o. once”, the “Moving distance (cm)” value was 647.0 cm and the Number of standings is 18.3. Where the note is “30 mg/kg p.o. once”, the “Moving distance (cm)” value is recorded as 1107.3 cm and the Number of standings amounted to 31.0.
